Patent US12441768B2, “Compositions and methods for treating endometriosis” (EndoMet Biosciences, Inc., priority 2018, dated 2025)
*1 amine or outer side, *2 acyl side, *3 side chain or, on linkers, in order; H or OH if unused. Where a SMILES comes first, the peptide text is derived from it. Bridges are numbered along the chain shown (N, C = ends). [ ]: non-standard residue; d: D form. Glutaryl = O=C(CCCC(=O)[*:2])[*:1]; NMeNva = CCC[C@H](NC)C(=O)O

Target: T1, β-catenin (Homo sapiens, UniProt P35222)
T1 sequence (P35222 1-781): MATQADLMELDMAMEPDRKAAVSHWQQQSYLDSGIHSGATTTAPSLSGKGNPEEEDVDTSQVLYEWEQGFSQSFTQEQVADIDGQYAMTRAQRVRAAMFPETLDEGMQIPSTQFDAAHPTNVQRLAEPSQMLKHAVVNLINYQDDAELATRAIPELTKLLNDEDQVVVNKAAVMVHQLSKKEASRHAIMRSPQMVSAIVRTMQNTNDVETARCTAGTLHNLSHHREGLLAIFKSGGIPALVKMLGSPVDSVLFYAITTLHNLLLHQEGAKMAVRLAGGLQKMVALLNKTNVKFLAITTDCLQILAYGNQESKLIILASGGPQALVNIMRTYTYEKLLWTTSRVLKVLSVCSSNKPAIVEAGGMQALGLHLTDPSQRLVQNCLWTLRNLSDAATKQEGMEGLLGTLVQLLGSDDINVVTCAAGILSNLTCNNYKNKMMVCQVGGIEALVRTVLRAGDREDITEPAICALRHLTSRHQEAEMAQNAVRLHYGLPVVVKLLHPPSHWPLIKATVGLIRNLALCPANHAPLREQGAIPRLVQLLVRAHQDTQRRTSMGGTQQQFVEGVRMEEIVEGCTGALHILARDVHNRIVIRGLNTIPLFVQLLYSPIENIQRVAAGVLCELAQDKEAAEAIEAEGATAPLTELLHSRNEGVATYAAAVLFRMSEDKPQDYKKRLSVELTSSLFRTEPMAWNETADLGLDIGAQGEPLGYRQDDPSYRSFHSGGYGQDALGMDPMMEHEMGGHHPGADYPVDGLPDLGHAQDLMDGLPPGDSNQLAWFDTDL
Test: KD50 measurement using competitive fluorescence polarization (FP) with labelled TCF4
Type: binding
Details: for Kd / β-Cat FP Hill slope: fluorescence polarization, β-catenin; for Kd: read-out: β-Cat FP KD
Excerpt: Fluorescence polarization (FP) is another method used to analyze protein-ligand interactions. This methodology measures the change in fluorescence light emitted by a labelled compound free vs. conjugated to another compound in solution. Upon binding of the fluorescent molecule to a complex, polarization increases because of limited rotation of the fluorescent tracer. Competitive FP is often utilized in drug screens as it is formatted for high throughput screens in a plate format. This immunoassay is performed by introducing a non-conjugated drug to compete for binding to the labelled competitor-ligand complex, leading to a reduction in polarization. TCF4 protein is utilized for the competitive assay as (1) this protein influences the full activation of the Wnt pathway and (2) shares homology with the β-catenin inhibitors. Exemplary methodology is described in Example 13. Data were analyzed and plotted in Microsoft Excel (Microsoft, Redmond, WA).
5 nM of labelled TCF4 protein was added to solution of 100 nM of β-catenin and incubated at room temperature in 96-well plates (Greiner 96 Flat transparent plates, Millipore Sigma, Carlsbad CA). Varying concentrations of β-catenin inhibitor candidate (SEQ ID NO: 404) were then added in a series of serial dilutions from 10 nM to 30 uM of inhibitor in different wells of the plate. The fluorescence polarization was read by Infinite M1000 (Tecan, Baldwin Park CA) at excitation wavelength of 470 nm and measured at emission wavelength of 520 nm. […] The experiments were performed three times and data were analyzed and plotted in Microsoft Excel (Microsoft, Redmond, WA).

SMILES	Kd	β-Cat FP Hill slope	Binding to β-catenin (fluorescence polarization) (5 nM labelled TCF4, 100 nM β-catenin, 10 nM to 30 uM inhibitor)
CCCCCCCCCCCCCCCCCC(=O)N[C@@H](Cc1c[nH]c2ccccc12)C(=O)N(C)[C@@H](Cc1c[nH]c2ccccc12)C(=O)N[C@@H](CCC(=O)O)C(=O)NC(C)(CO)C(=O)N[C@H](C(=O)N[C@@H](CC(C)C)C(=O)N[C@@H](CC(=O)O)C(=O)N[C@@H](CCC(=O)O)C(=O)N[C@@H](Cc1c[nH]cn1)C(=O)NC(C)(C(=O)N[C@@H](CCC(N)=O)C(=O)N[C@@H](CCCNC(=N)N)C(=O)N[C@H](C(=O)N[C@@H](Cc1c[nH]c2ccccc12)C(=O)O)C(C)C)C(C)C)[C@@H](C)CC (single isomer, unassigned) [SEQ ID NO: 393/500, Stearyl-W-NmeW-E-aMeS-ILDEH-aMeV-QRVW-COOH]	> 30 µM		
CC[C@H](NC(=O)[C@@H](NC(=O)[C@H](CC(C)C)NC(=O)[C@H](CC1CCCCC1)NC(=O)[C@H](Cc1c[nH]c2ccccc12)NC(=O)[C@H](CCCCN)NC(=O)COCCOCCNC(=O)[C@H](CCCNC(=N)N)NC(=O)[C@H](CCCNC(=N)N)NC(=O)[C@H](CCCNC(=N)N)NC(=O)[C@H](CCC(N)=O)NC(=O)[C@H](CCCNC(=N)N)NC(=O)[C@H](CCCNC(=N)N)NC(=O)[C@H](CCCCN)NC(=O)[C@H](CCCCN)NC(=O)[C@@H](N)CCCNC(=N)N)[C@@H](C)CC)C(=O)N[C@@H](C)C(=O)N[C@@H](Cc1c[nH]c2ccccc12)C(=O)N[C@@H](CC(=O)O)C(=O)O [282/493] (HELM PEPTIDE1{R.K.K.R.R.Q.R.R.R.[O=C(COCCOCCN[*:1])[*:2]].K.W.[Cha].L.I.[Abu].A.W.D}$$$$V2.0)		0.77	
CC[C@H](C)[C@@H]1NC(=O)[C@@H](NC(=O)[C@H](CCC(N)=O)NC(=O)[C@H](C)N(C)C(=O)[C@H](Cc2c[nH]c3ccccc23)NC(C)=O)CCCCNC(=O)CC[C@@H](C(=O)N[C@@H](Cc2c[nH]cn2)C(=O)N[C@H](C(=O)N[C@@H](CCC(N)=O)C(=O)N[C@@H](CCCNC(=N)N)C(=O)N[C@H](C(=O)N[C@@H](Cc2c[nH]c3ccccc23)C(=O)NCC(N)=O)C(C)C)C2CCCCC2)NC(=O)[C@H](CC(=O)O)NC(=O)[C@H](CC(C)C)NC1=O [SEQ ID NO: 404, cyclo-AcNH-W-NmeA-QK*ILDE*H-Chg-QRVWG-NH2] (HELM PEPTIDE1{[ac].W.[meA].Q.K.I.L.D.E.H.[O=C([C@@H](N[*:1])C1CCCCC1)[*:2]].Q.R.V.W.G.[am]}$PEPTIDE1,PEPTIDE1,5:R3-9:R3$$$V2.0)			binds β-catenin in a concentration-dependent manner
CC[C@H](C)[C@H](NC(=O)[C@H](CC(C)C)NC(=O)[C@H](Cc1ccccc1)NC(=O)[C@H](Cc1c[nH]c2ccccc12)NC(=O)[C@H](CCSC)NC(=O)[C@H](CCCNC(=N)N)NC(=O)[C@H](CO)NC(=O)[C@@H](N)CCSC)C(=O)N[C@@H](CO)C(=O)N[C@@H](Cc1ccccc1)C(=O)N[C@@H](Cc1c[nH]c2ccccc12)C(=O)N[C@@H](CCCCN)C(N)=O [compound 6] (H-MSRMWFLISFWK-NH2)	> 30 µM		
CC[C@H](C)[C@H](NC(=O)[C@H](CC(C)C)NC(=O)[C@H](Cc1ccccc1)NC(=O)[C@H](Cc1c[nH]c2ccccc12)NC(=O)[C@@H](N)CCSC)C(=O)N[C@@H](CO)C(=O)N[C@@H](Cc1ccccc1)C(=O)N[C@@H](Cc1c[nH]c2ccccc12)C(=O)N[C@@H](C)C(=O)O [compound 7] (H-MWFLISFWA-OH)	10 to 30 µM	0.5	
CC[C@H](C)[C@H](NC(=O)[C@H](CC(C)C)NC(=O)[C@H](Cc1ccccc1)NC(=O)[C@H](Cc1c[nH]c2ccccc12)NC(=O)[C@@H](N)CCSC)C(=O)N[C@@H](CO)C(=O)N[C@@H](Cc1ccccc1)C(=O)N[C@@H](C)C(=O)NCC(=O)O [compound 8] (H-MWFLISFAG-OH)	1 to 10 µM	1.7	
CC[C@H](C)[C@H](NC(=O)[C@H](CC(C)C)NC(=O)[C@H](Cc1ccccc1)NC(=O)[C@H](Cc1c[nH]c2ccccc12)NC(=O)[C@@H](N)CCSC)C(=O)N[C@@H](CO)C(=O)N[C@@H](C)C(=O)N[C@@H](Cc1c[nH]c2ccccc12)C(=O)NCC(=O)O [compound 9] (H-MWFLISAWG-OH)	1 to 10 µM	0.51	
CC[C@H](C)[C@H](NC(=O)[C@H](CC(C)C)NC(=O)[C@H](Cc1ccccc1)NC(=O)[C@H](Cc1c[nH]c2ccccc12)NC(=O)[C@@H](N)CCSC)C(=O)N[C@@H](C)C(=O)N[C@@H](Cc1ccccc1)C(=O)N[C@@H](Cc1c[nH]c2ccccc12)C(=O)NCC(=O)O [compound 10] (H-MWFLIAFWG-OH)	1 to 10 µM	0.73	
CC[C@H](C)[C@H](NC(=O)[C@H](C)NC(=O)[C@H](Cc1ccccc1)NC(=O)[C@H](Cc1c[nH]c2ccccc12)NC(=O)[C@@H](N)CCSC)C(=O)N[C@@H](CO)C(=O)N[C@@H](Cc1ccccc1)C(=O)N[C@@H](Cc1c[nH]c2ccccc12)C(=O)NCC(=O)O [compound 12] (H-MWFAISFWG-OH)	1 to 10 µM	0.5	
CC[C@H](C)[C@H](NC(=O)[C@H](CC(C)C)NC(=O)[C@H](C)NC(=O)[C@H](Cc1c[nH]c2ccccc12)NC(=O)[C@@H](N)CCSC)C(=O)N[C@@H](CO)C(=O)N[C@@H](Cc1ccccc1)C(=O)N[C@@H](Cc1c[nH]c2ccccc12)C(=O)NCC(=O)O [compound 13] (H-MWALISFWG-OH)	0.4 to 1 µM	0.86	

The next lines start with results.

Kd	β-Cat FP Hill slope	SMILES	Binding to β-catenin (fluorescence polarization) (5 nM labelled TCF4, 100 nM β-catenin, 10 nM to 30 uM inhibitor)
10 to 30 µM	0.98	CCC[C@H]1C(=O)N[C@@H](CCC(N)=O)C(=O)N[C@@H](CO)C(=O)N[C@@H](CC(C)C)C(=O)N[C@@H](Cc2ccccc2)C(=O)N(C)[C@@H](CCC)C(=O)N2CCC[C@H]2C(=O)N2CCC[C@H]2C(=O)N(C)[C@@H](CCC)C(=O)N[C@H](C(N)=O)CCCCNC(=O)CCCC(=O)N[C@@H](CCSC)C(=O)N[C@@H](CCSC)C(=O)N1C [compound 3] (MM[NMeNva]QSLF[NMeNva]PP[NMeNva]K-NH2; linker N-12 via Glutaryl)	
1 to 10 µM	0.5	CCC[C@H]1C(=O)N[C@@H](Cc2c[nH]c3ccccc23)C(=O)N[C@@H](CC(C)C)C(=O)N[C@@H](CO)C(=O)N[C@@H](CCCNC(=N)N)C(=O)N[C@@H](CCC(N)=O)C(=O)N[C@@H](Cc2c[nH]c3ccccc23)C(=O)N[C@@H]([C@@H](C)CC)C(=O)N[C@@H](C(C)C)C(=O)N[C@H](C(N)=O)CCCCNC(=O)CCCC(=O)N[C@@H](CCSC)C(=O)N[C@@H](Cc2c[nH]c3ccccc23)C(=O)N1C [compound 5] (HELM PEPTIDE1{M.W.[CCC[C@@H](C(=O)[*:2])N(C)[*:1]].W.L.S.R.Q.W.I.V.K.[am]}|CHEM1{[O=C(CCCC(=O)[*:2])[*:1]]}$PEPTIDE1,CHEM1,1:R1-1:R1|PEPTIDE1,CHEM1,12:R3-1:R2$$$V2.0)	
0.4 to 1 µM	1.31	CSCC[C@H](N)C(=O)N[C@@H](Cc1c[nH]c2ccccc12)C(=O)N[C@@H](Cc1ccccc1)C(=O)N[C@@H](CC(C)C)C(=O)N[C@@H](C)C(=O)N[C@@H](CO)C(=O)N[C@@H](Cc1ccccc1)C(=O)N[C@@H](Cc1c[nH]c2ccccc12)C(=O)NCC(=O)O [compound 11] (H-MWFLASFWG-OH)	
1 to 10 µM	0.69	CC[C@H](C)[C@@H]1NC(=O)[C@H](CC(C)C)NC(=O)[C@H](Cc2ccccc2)NC(=O)[C@H](Cc2c[nH]c3ccccc23)NC(=O)[C@@H](N)CCCCNC(=O)CC[C@@H](C(=O)O)NC(=O)[C@H](Cc2c[nH]c3ccccc23)NC(=O)[C@H](Cc2ccccc2)NC(=O)[C@H](CO)NC1=O [compound 226] (HELM PEPTIDE1{K.W.F.L.I.S.F.W.E}$PEPTIDE1,PEPTIDE1,1:R3-9:R3$$$V2.0)	
1 to 10 µM	0.5	CC[C@H](C)[C@@H]1NC(=O)[C@H](CC(C)C)NC(=O)[C@H](Cc2ccccc2)NC(=O)[C@H](Cc2c[nH]c3ccccc23)NC(=O)[C@@H](N)CCCCNC(=O)CC[C@@H](C(=O)NCC(=O)O)NC(=O)[C@H](Cc2ccccc2)NC(=O)[C@H](CO)NC1=O [compound 227] (HELM PEPTIDE1{K.W.F.L.I.S.F.E.G}$PEPTIDE1,PEPTIDE1,1:R3-8:R3$$$V2.0)	
